Assay results from PMC10259451 (Journal of Medicinal Chemistry, 2023).
In brackets after ≈: the same amount, converted by molar mass.

What was measured:
[1] = test system: L. mexicana; details: administered orally; cited from earlier work
[2] = Kinetic aqueous solubility; assay type: physicochemical; details: pH 7.4, Sol. (aqueous solubility)
[3] = test system: L. mexicana intracellular amastigotes; assay type: cell-based, Leishmania mexicana
[4] = test system: L. mexicana; assay: Murine model of cutaneous leishmaniasis, footpad lesion size; assay type: in vivo, BALB/c mice; details: PO 50mg/kg/day for 10 days; p < 0.0001, Mann–Whitney

For Cc1ccc(-c2nc3ccccc3s2)cc1NC(=O)c1cc([N+](=O)[O-])c(N2CCN(C)CC2)cc1Cl [compound 4], the “efficacy in murine model of cutaneous leishmaniasis” value [1] is listed as “less efficacious than the positive control, miltefosine”.
For O=C(Nc1cccc(-c2ncco2)c1)c1cc([N+](=O)[O-])c(F)cc1F [compound 71], the solubility [2] was ~9 µM (≈ 3.11 µg/mL).
For O=C(Nc1ccc(Cl)c(Cl)c1)c1ccc(N2CCNCC2)c([N+](=O)[O-])c1 [compound 79], the EC50 ([3]; Leishmania mexicana, J774.A1, read-out: L. mexicana EC50, intracellular amastigotes in J774A.1 macrophages, mean ± SD, at least three experiments) was 660 nM and the “lesion size vs vehicle” value [4] was “significantly smaller lesions at weeks 4 and 5”.
For Cc1ccc(-c2nc3ccccc3s2)cc1NC(=O)c1ccc(F)c([N+](=O)[O-])c1 [compound 10], the “antileishmanial activity in words” value ([3]; L. mexicana amastigotes) was “active”.
